Results on 16 compounds are retold here after US10548899B2, “Quinazolinone and benzotriazinone compounds with cholinergic muscarinin M1 receptor positive allosteric modulator activity” (TAKEDA PHARMACEUTICAL COMPANY LIMITED, priority 2015, dated 2020).

The experiment addresses T1, human M1 receptor (hCHRM1) (Homo sapiens, UniProt P11229).
T1 construct: expressed in transfected cells; host or cells: CHO-K1
T1 sequence (P11229 1-460): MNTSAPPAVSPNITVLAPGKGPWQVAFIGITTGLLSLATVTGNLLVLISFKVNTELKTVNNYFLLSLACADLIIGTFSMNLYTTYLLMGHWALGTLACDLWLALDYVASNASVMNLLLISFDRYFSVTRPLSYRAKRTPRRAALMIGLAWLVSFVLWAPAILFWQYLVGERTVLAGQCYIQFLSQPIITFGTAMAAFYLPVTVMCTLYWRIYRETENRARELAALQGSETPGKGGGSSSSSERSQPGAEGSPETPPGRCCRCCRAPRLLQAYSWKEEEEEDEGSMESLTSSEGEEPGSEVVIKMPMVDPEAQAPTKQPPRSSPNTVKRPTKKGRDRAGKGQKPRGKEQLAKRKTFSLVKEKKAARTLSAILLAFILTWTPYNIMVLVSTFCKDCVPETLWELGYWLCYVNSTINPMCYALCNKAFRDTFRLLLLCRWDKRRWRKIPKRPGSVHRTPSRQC
Briefly: Measurement of M1 receptor positive allosteric modulator (M1PAM) activity (calcium fluorescence, Fluo-4, FDSS). The following applies: for activity (%) at 10 μM: 10 μM test compound, acetylcholine EC20 (final 0.8 nM) present, 100% = acetylcholine 1 μM, 0% = DMSO, CHO-K1 hCHRM1 cells; for EC50: inflection point of concentration-dependent curve, CHO-K1 cells stably expressing hCHRM1, in presence of acetylcholine at EC20 concentration (final 0.8 nM), read-out: IP value. In kind it is cell-based. The protocol:
Measurement of M1 receptor positive allosteric modulator (M1PAM) activity
The activity of a test compound in the presence of acetylcholine at EC20 concentration (final concentration 0.8 nM), which affords an action corresponding to about 20% of the maximum activity, was measured as PAM activity. The method is as follows. CHO-K1 cells stably expressing a human M1 receptor (hCHRM1) were plated on a 384-well black clear bottom plate (BD Falcon) at 5,000 cells/well, and cultured in an incubator at 37° C., 5% CO2 for 1 day. The medium in the cell plate was removed, and assay buffer A containing a calcium indicator (Recording medium (DOJINDO LABORATORIES), 0.1% BSA (Wako Pure Chemical Industries, Ltd.), 2.5 μg/mL Fluo-4 AM (DOJINDO LABORATORIES), 0.08% Pluronic F127 (DOJINDO LABORATORIES) and 1.25 mM probenecid (DOJINDO LABORATORIES) were added at 30 μL/well. The cells were left standing in the incubator at 37° C., 5% CO2 for 30 min, and further left standing at room temperature for 30 min. A test compound prepared by diluting with assay buffer B (HESS (Invitrogen), 20 mM HEPES (Invitrogen), 0.1% BSA) containing 3.2 nM acetylcholine was added at 10 μL/well, and the fluorescence was measured by FDSS/μcell (Hamamatsu Photonics K.K.) for 1 min every for 1 second. With the definition that the amount of change in the fluorescence on addition of acetylcholine (final concentration 1 μM) is 100% and that on addition of DMSO instead of a test compound is 0%, the activity (%) of the test compound was calculated, and the inflection point in the concentration-dependent curve of the test compound was calculated as IP values.

SMILES strings stand for the structures. Where a name gives a salt, the structure may show the parent alone.

Regarding `Cc1c(Cc2ccc(-n3cccn3)cc2)cc2c(=O)n([C@H]3COCC[C@@H]3O)nnc2c1C` [Example 43, 3-((3S,4S)-4-hydroxytetrahydro-2H-pyran-3-yl)-7,8-dimethyl-6-(4-(1H-pyrazol-1-yl)benzyl)-1,2,3-benzotriazin-4(3H)-one], the “activity (%) at 10 μM” value is 100% and the EC50 was found to be 14 nM.

On to `Cc1c(Cc2ccc(-c3cnn(C)c3)nc2)cc2c(=O)n([C@H]3CCCC[C@@H]3O)cnc2c1C` [Example 59, 3-((1S,2S)-2-hydroxycyclohexyl)-7,8-dimethyl-6-((6-(1-methyl-1H-pyrazol-4-yl)pyridin-3-yl)methyl)quinazolin-4(3H)-one], for which the “activity (%) at 10 μM” value amounted to 94% and the EC50 stood at 4.8 nM.

Take `Cc1c(Cc2ccc(-n3cccn3)cc2)cc2c(=O)n([C@H]3CCOC[C@@H]3O)cnc2c1C` [Example 55, 3-((3R,4S)-3-hydroxytetrahydro-2H-pyran-4-yl)-7,8-dimethyl-6-(4-(1H-pyrazol-1-yl)benzyl)quinazolin-4(3H)-one]: the “activity (%) at 10 μM” value is given as 99% and the EC50 is 7.4 nM.

On to `Cc1c(Cc2ccc(-n3cccn3)cc2)cc2c(=O)n([C@H]3CCOC[C@@H]3O)nnc2c1C` [Example 56, 3-((3R,4S)-3-hydroxytetrahydro-2H-pyran-4-yl)-7,8-dimethyl-6-(4-(1H-pyrazol-1-yl)benzyl)-1,2,3-benzotriazin-4(3H)-one], for which the “activity (%) at 10 μM” value turned out to be 98% and the EC50 turned out to be 15 nM.

Consider `Cc1c(Cc2ccc(-c3cn(C)nn3)cc2)cc2c(=O)n([C@H]3CCC[C@@H]3O)nnc2c1C` (relative stereo) [Example 40, 3-(trans-2-hydroxycyclopentyl)-7,8-dimethyl-6-(4-(1-methyl-1H-1,2,3-triazol-4-yl)benzyl)-1,2,3-benzotriazin-4(3H)-one], for which the “activity (%) at 10 μM” value was 94% and the EC50 turned out to be 70 nM.

In the case of `Cc1cc2ncn([C@H]3CCC[C@@H]3O)c(=O)c2cc1Cc1ccc(-c2cn(C)nn2)cc1` (relative stereo) [Example 21, 3-(trans-2-hydroxycyclopentyl)-7-methyl-6-(4-(1-methyl-1H-1,2,3-triazol-4-yl)benzyl)quinazolin-4(3H)-one], the “activity (%) at 10 μM” value is 97% and the EC50 turned out to be 51 nM.

In the case of `COc1cc(Cc2ccc(-c3cnn(C)c3)cc2)cc2c(=O)n([C@H]3CCC[C@@H]3O)cnc12` (relative stereo) [Example 20, 3-(trans-2-hydroxycyclopentyl)-8-methoxy-6-(4-(1-methyl-1H-pyrazol-4-yl)benzyl)quinazolin-4(3H)-one], the “activity (%) at 10 μM” value is given as 97% and the EC50 turned out to be 61 nM.

In the case of `Cc1c(Cc2ccc(-n3cccn3)cc2)cc2c(=O)n([C@H]3COCC[C@@H]3O)nnc2c1C` [Example 41, 3-((3S,4S)-4-hydroxytetrahydro-2H-pyran-3-yl)-7,8-dimethyl-6-(4-(1H-pyrazol-1-yl)benzyl)-1,2,3-benzotriazin-4(3H)-one], the “activity (%) at 10 μM” value is 101% and the EC50 stood at 29 nM.

In the case of `Cc1c(Cc2ccc(-c3cn(C)nn3)cc2)cc2c(=O)n([C@H]3CCC[C@@H]3O)cnc2c1C` (relative stereo) [Example 11, 3-(trans-2-hydroxycyclopentyl)-7,8-dimethyl-6-(4-(1-methyl-1H-1,2,3-triazol-4-yl)benzyl)quinazolin-4(3H)-one], the “activity (%) at 10 μM” value is 101% and the EC50 amounted to 15 nM.

Consider `Cc1c(Cc2ccc(-c3ccn(C)n3)nc2)cc2c(=O)n([C@H]3COCC[C@@H]3O)nnc2c1C` [Example 58, 3-((3S,4S)-4-hydroxytetrahydro-2H-pyran-3-yl)-7,8-dimethyl-6-((6-(1-methyl-1H-pyrazol-3-yl)pyridin-3-yl)methyl)-1,2,3-benzotriazin-4(3H)-one], for which the “activity (%) at 10 μM” value is 95% and the EC50 came to 14 nM.

`Cc1c(Cc2ccc(-c3cnn(C)c3)nc2)cc2c(=O)n(CC3CCCO3)cnc2c1Cl` (centres unmarked) [Example 25, 8-chloro-7-methyl-6-((6-(1-methyl-1H-pyrazo-4-yl)pyridin-3-yl)methyl)-3-(tetrahydrofuran-2-ylmethyl)quinazolin-4(3H)-one hydrochloride]: the “activity (%) at 10 μM” value is recorded as 95% and the EC50 came to 62 nM.

Turning to `Cc1c(Cc2ccc(-n3cccn3)cc2)cc2c(=O)n([C@H]3CCCC[C@@H]3O)cnc2c1C` (relative stereo) [Example 1, 3-(trans-2-hydroxycyclohexyl)-7,8-dimethyl-6-(4-(1H-pyrazol-1-yl)benzyl)quinazolin-4(3H)-one], the “activity (%) at 10 μM” value worked out at 92% and the EC50 is 52 nM.

As to `Cc1cc(-c2ccc(Cc3cc4c(=O)n([C@H]5CCC[C@@H]5O)cnc4c(C)c3C)cn2)ccn1` (relative stereo) [Example 12, 3-(trans-2-hydroxycyclopentyl)-7,8-dimethyl-6-((2′-methyl-2,4′-bipyridin-5-yl)methyl)quinazolin-4(3H)-one], the “activity (%) at 10 μM” value is on record as 99% and the EC50 was determined as 39 nM.

Regarding `Cc1c(Cc2ccc(Cl)nc2)cc2c(=O)n([C@H]3CCCC[C@@H]3O)cnc2c1C` [Example 54, 6-((6-chloropyridin-3-yl)methyl)-3-((1S,2S)-2-hydroxycyclohexyl)-7,8-dimethylquinazolin-4(3H)-one], the “activity (%) at 10 μM” value stood at 96% and the EC50 came out at 23 nM.

As to `Cc1c(Cc2ccc(-c3ccn(C)n3)cc2)cc2c(=O)n([C@H]3COCC[C@@H]3O)nnc2c1C` [Example 47, 3-((3S,4S)-4-hydroxytetrahydro-2H-pyran-3-yl)-7,8-dimethyl-6-(4-(1-methyl-1H-pyrazol-3-yl)benzyl)-1,2,3-benzotriazin-4(3H)-one], the “activity (%) at 10 μM” value worked out at 95% and the EC50 turned out to be 38 nM.

Consider `Cc1c(Cc2ccc(-n3cccn3)cc2)cc2c(=O)n([C@H]3CCC[C@@H]3O)cnc2c1C` (relative stereo) [Example 2, 3-(trans-2-hydroxycyclopentyl)-7,8-dimethyl-6-(4-(1H-pyrazol-1-yl)benzyl)quinazolin-4(3H)-one], for which the “activity (%) at 10 μM” value was found to be 96% and the EC50 was 61 nM.
